How the values were obtained:
Assay in all cases: Post-emergent Test III, herbicidal activity in wheat and barley
Assay type in all cases: in vivo
[1] = test system: SASKR: Russian thistle (Salsola iberica); conditions: 21 days after application; for pest or weed control at 35 g/ha / pest or weed control at 70 g/ha: Salsola tragus, post-emergence, 504 h, read-out: Visual Gorowth Reduction (%) 21 days After Application SASKR; for pest or weed control at 35 g/ha: 35 g ai/ha; for pest or weed control at 70 g/ha: 70 g ai/ha; for GR50 SASKR / GR80 SASKR: probit analysis; for GR50 SASKR: dose for 50 percent growth reduction; for GR80 SASKR: dose for 80 percent growth reduction
Method in brief: (§1)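 GR20, GR50, GR80 and GR90 come from probit analysis of visual injury scores (0 = none, 100 = complete kill) taken 21 d after treatment. Foliar application was by track sprayer delivering 187 L/ha at five rates, from high down to 1/16×, onto greenhouse plants at the 2–3 leaf stage, with solvent-blank controls.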

[2] = test system: TRZSS: wheat, including spring and winter (Triticum aestivum); conditions: 21 days after application; for pest or weed control at 35 g/ha / pest or weed control at 70 g/ha: Triticum aestivum, post-emergence, 504 h, read-out: Visual Gorowth Reduction (%) 21 days After Application TRZSS; for pest or weed control at 35 g/ha: 35 g ai/ha; for pest or weed control at 70 g/ha: 70 g ai/ha; for GR20 TRZSS: probit analysis, dose for 20 percent growth reduction (crop)
Method in brief: as §1

[3] = test system: VERPE: bird's-eye speedwell (veronica persica); conditions: 21 days after application; for pest or weed control at 35 g/ha / pest or weed control at 70 g/ha: Veronica persica, post-emergence, 504 h, read-out: Visual Gorowth Reduction (%) 21 days After Application VERPE; for pest or weed control at 35 g/ha: 35 g ai/ha; for pest or weed control at 70 g/ha: 70 g ai/ha; for GR50 VERPE / GR80 VERPE: probit analysis; for GR50 VERPE: dose for 50 percent growth reduction; for GR80 VERPE: dose for 80 percent growth reduction
Method in brief: as §1

[4] = test system: KCHSC: kochia (Kochia scoparia); conditions: 21 days after application; for pest or weed control at 35 g/ha / pest or weed control at 70 g/ha: Bassia scoparia, post-emergence, 504 h, read-out: Visual Gorowth Reduction (%) 21 days After Application KCHSC; for pest or weed control at 35 g/ha: 35 g ai/ha; for pest or weed control at 70 g/ha: 70 g ai/ha; for GR50 KCHSC / GR80 KCHSC: probit analysis; for GR50 KCHSC: dose for 50 percent growth reduction; for GR80 KCHSC: dose for 80 percent growth reduction
Method in brief: as §1

[5] = test system: MATSS: scented mayweed (Matricaria chamomilla), pineappleweed (Matricaria matricarioides); conditions: 21 days after application; for pest or weed control at 35 g/ha / pest or weed control at 70 g/ha: Matricaria chamomilla, post-emergence, 504 h, read-out: Visual Gorowth Reduction (%) 21 days After Application MATSS; for pest or weed control at 35 g/ha: 35 g ai/ha; for pest or weed control at 70 g/ha: 70 g ai/ha; for GR50 MATSS / GR80 MATSS: probit analysis; for GR50 MATSS: dose for 50 percent growth reduction; for GR80 MATSS: dose for 80 percent growth reduction
Method in brief: as §1

[6] = test system: VIOSS: wild pansy (Viola tricolor), field violet (Viola arvensis); conditions: 21 days after application; for pest or weed control at 35 g/ha / pest or weed control at 70 g/ha: Viola tricolor, post-emergence, 504 h, read-out: Visual Gorowth Reduction (%) 21 days After Application VIOSS; for pest or weed control at 35 g/ha: 35 g ai/ha; for pest or weed control at 70 g/ha: 70 g ai/ha; for GR50 VIOSS / GR80 VIOSS: probit analysis; for GR50 VIOSS: dose for 50 percent growth reduction; for GR80 VIOSS: dose for 80 percent growth reduction
Method in brief: as §1

[7] = test system: HORSS: barley, including spring and winter (Hordeum vulgare); conditions: 21 days after application; for pest or weed control at 35 g/ha / pest or weed control at 70 g/ha: Hordeum vulgare, post-emergence, 504 h, read-out: Visual Gorowth Reduction (%) 21 days After Application HORSS; for pest or weed control at 35 g/ha: 35 g ai/ha; for pest or weed control at 70 g/ha: 70 g ai/ha; for GR20 HORSS: probit analysis, dose for 20 percent growth reduction (crop)
Method in brief: as §1

Row | SMILES | pest or weed control at 35 g/ha [1] | pest or weed control at 70 g/ha [1] | GR50 SASKR [1] | GR80 SASKR [1] | pest or weed control at 35 g/ha [2] | pest or weed control at 70 g/ha [2] | GR20 TRZSS [2] | pest or weed control at 35 g/ha [3] | pest or weed control at 70 g/ha [3] | GR50 VERPE [3] | GR80 VERPE [3] | pest or weed control at 35 g/ha [4] | pest or weed control at 70 g/ha [4] | GR50 KCHSC [4] | GR80 KCHSC [4] | pest or weed control at 35 g/ha [5] | pest or weed control at 70 g/ha [5] | GR50 MATSS [5] | GR80 MATSS [5] | pest or weed control at 35 g/ha [6] | also measured
1 | Nc1c(F)c(-c2ccc(I)c(F)c2)nc(C(=O)O)c1Cl [Compound 157] | 75 to 84% | 85 to 94% | 11 g ai/ha | 34 g ai/ha | 75 to 84% | 75 to 84% | 1 g ai/ha | 30 to 44% | 60 to 74% | 50 g ai/ha | >140 g ai/ha | 85 to 94% | 85 to 94% | 6 g ai/ha | 18 g ai/ha | 60 to 74% | 75 to 84% | 21 g ai/ha | 64 g ai/ha | 95 to 100% | pest or weed control at 70 g/ha [6]: 95 to 100%; GR50 VIOSS [6]: 1 g ai/ha; GR80 VIOSS [6]: 4 g ai/ha; pest or weed control at 35 g/ha [7]: 85 to 94%; pest or weed control at 70 g/ha [7]: 95 to 100%; GR20 HORSS [7]: 1 g ai/ha
2 | Nc1c(F)c(-c2ccc(Br)cc2F)nc(C(=O)O)c1Cl [Compound 163] | 75 to 84% | 85 to 94% | 3 g ai/ha | 27 g ai/ha | 75 to 84% | 75 to 84% | 1 g ai/ha | 75 to 84% | 95 to 100% | 13 g ai/ha | 30 g ai/ha | 75 to 84% | 85 to 94% | 8 g ai/ha | 36 g ai/ha | 75 to 84% | 95 to 100% | 5 g ai/ha | 24 g ai/ha | 75 to 84% | pest or weed control at 70 g/ha [6]: 95 to 100%; GR50 VIOSS [6]: 14 g ai/ha; GR80 VIOSS [6]: 29 g ai/ha; pest or weed control at 35 g/ha [7]: 85 to 94%; pest or weed control at 70 g/ha [7]: 95 to 100%; GR20 HORSS [7]: 1 g ai/ha
3 | COC(=O)c1nc(-c2ccc(Br)c(F)c2F)nc(N)c1OC [Compound 122, methyl 6-amino-2-(4-bromo-2,3-difluorophenyl)-5-methoxypyrimidine-4-carboxylate] | 95 to 100% | 95 to 100% | <17.5 g ai/ha | <17.5 g ai/ha | 75 to 84% | 85 to 94% | 1 g ai/ha | 95 to 100% | 95 to 100% | 1 g ai/ha | 2 g ai/ha | 85 to 94% | 95 to 100% | 5 g ai/ha | 14 g ai/ha | 0 to 29% | 30 to 44% | >140 g ai/ha | >140 g ai/ha | 95 to 100% | pest or weed control at 70 g/ha [6]: 95 to 100%; GR50 VIOSS [6]: 10 g ai/ha; GR80 VIOSS [6]: 21 g ai/ha; pest or weed control at 35 g/ha [7]: 60 to 74%; pest or weed control at 70 g/ha [7]: 85 to 94%; GR20 HORSS [7]: 3 g ai/ha
